Test results published in US6087119A, “Method for determining the catalytic activity of factor IXa” (Roche Diagnostics GmbH, priority 1996, dated 2000).
One block for each compound: values may come before it. Square brackets hold non-standard residues; d marks the D form. Peptide text beside a SMILES is read from it. * marks the point of attachment. pNA = O=[N+]([O-])c1ccc(N*)cc1; dNle = CCCC[C@@H](N)C(=O)O; Moc = COC(=O)*

Key:
Assay type in all cases: biochemical
Parameters in all cases: coding for the FIX protease domain from amino acid position 181 to 415; Met (ATG start codon) (N); made in house
[1] = biological target: T1, rFIXa (human) (Homo sapiens, UniProt P00740); assay: Influence of alcohols and organic solvents on the activity of rFIXa, chromogenic peptide substrates; details: for V/V0: MeSO2-D-HHT-Gly-Arg-pNA 1.02 mmol/l, 0.48 μmol/l rFIXa; for V/V0 / effect on the activity of rFIXa (in words): pH 7.4; for effect on the activity of rFIXa (in words): additive 0-50%, MeSO2-D-HHT-Gly-Arg-pNA
Method: The reaction was started by adding FIXa.
MeSO2 -D-HHT-Gly-Arg-pNA→MeSO2 -D-HHT-Gly-Arg+pNA measurement signal: pNA
(§1) 0.48 μmol/l rFIXa (human)
0-50% (alcohol or organic solvent)
The ratio V/V0 was calculated to illustrate the stimulation of the catalytic activity of rFIXa.
V0, reaction rate without additives
V, reaction rate in the presence of additives
Test Mixture Chromogenic (Concentration in the Test)
Target sequence in this assay (P00740 227-461 limits assumed): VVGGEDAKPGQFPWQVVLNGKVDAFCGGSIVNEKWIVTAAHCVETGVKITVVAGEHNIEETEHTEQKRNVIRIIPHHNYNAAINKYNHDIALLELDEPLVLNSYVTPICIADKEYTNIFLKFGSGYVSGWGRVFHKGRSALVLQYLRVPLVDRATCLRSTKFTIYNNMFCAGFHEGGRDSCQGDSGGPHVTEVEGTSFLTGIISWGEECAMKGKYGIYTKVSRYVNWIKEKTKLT
Target sequence in this assay (P00740 131-226 partner limits assumed): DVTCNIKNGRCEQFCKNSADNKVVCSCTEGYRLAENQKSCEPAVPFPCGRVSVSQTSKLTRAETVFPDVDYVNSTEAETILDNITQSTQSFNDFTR

[2] = biological target: T1, rFIXa (human); assay: Kinetics of cleavage of chromogenic peptide substrates by rFIXa with ethylene glycol (Lineweaver Burk); details: substrate MOC-D-Nle-Gly-Arg-pNA, rFIXa 0.48 μmol/l, pH 7.4
Method: MeSO2 -D-HHT-Gly-Arg-pNA (0.102-1.02 mmol/l)
as §1
Target sequence in this assay (P00740 227-461): as the sequence (P00740 227-461 limits assumed) above
Target sequence in this assay (P00740 131-226): as the sequence (P00740 131-226 partner limits assumed) above
MOC-D-Nle-Gly-Arg-pNA (0.102-1.02 mmol/l)
MeSO2 -D-CHG-Gly-Arg-pNA (0.102-1.02 mmol/l)
0.28 μmol/l rFIXa (human)
The kinetic constants (Kcat /Km) were determined graphically according to Lineweaver Burk (Km and Kcat cannot be determined separately since the straight lines go through the origin).

[3] = biological target: T1, rFIXa (human); assay: Influence of known protease inhibitors on the activity of rFIXa
Method: Specific FIXa inhibitors can be identified by the inhibition of FIXa activity. For this purpose the FIXa activity is determined with a substrate of the R-D-Xxx-Gly-Arg-pNA type (Xxx=hydrophobic amino acid) in the absence and presence of the substance to be tested or of a substance mixture and the percentage inhibition is calculated from the quotients. The inhibition constant Ki is determined from the inhibition kinetics. The measurement signal is amplified by the presence of high concentrations of certain alcohols (preferably ethylene glycol).
200 μl buffer (100 mmol/l Tris-HCl, 100 mmol/l NaCl, 5 mmol/l CaCl2, 20-40% alcohol, pH 7-9) the buffer contains the inhibitor at various concentrations […]
The reaction can also be terminated after 5-10 min by stopping with acetic acid (25 μl, 50%), the absorbance is determined at 405 nm against a reagent blank.
Influence of Known Protease Inhibitors on the Activity of rFIXa Using Different pHs, Alcohols and Alcohol Concentrations 42 mmol/l Tris-HCl, pH 7.4 or 8.5 substrate MeSO2 -D-CHG-Gly-Arg-pNA (1.02 mmol/l) […]
inhibitor at stepped concentrations (4.1-163 μmol/l)
Known synthetic inhibitors of the 3-amidinophenylalanine type were used as inhibitors (Sturzebecher et al, J. Enzyme. Inhibition 9 (1995) 87 and WO 92/08709) (1991)). The inhibitory effect was examined at a low and at a high alcohol concentration as an example.
Target sequence in this assay (P00740 227-461 limits assumed): as the sequence (P00740 227-461 limits assumed) above
Target sequence in this assay (P00740 131-226 limits assumed): as the sequence (P00740 131-226 partner limits assumed) above

Compound: CC#N [Acetonitrile]
V/V0 ([1]; 8% additive): 0.828 | V/V0 ([1]; 16% additive): 0.314 | V/V0 ([1]; 25% additive): 0 | V/V0 ([1]; 33% additive): 0 | V/V0 ([1]; 41% additive): 0 | V/V0 ([1]; 50% additive): 0 | effect on the activity of rFIXa (in words) [1]: inactivate the enzyme

Compound: CN(C)C=O [DMF, dimethylformamide]
V/V0 ([1]; 8% additive): 0.649 | V/V0 ([1]; 16% additive): 0.514 | V/V0 ([1]; 25% additive): 0 | V/V0 ([1]; 33% additive): 0 | V/V0 ([1]; 41% additive): 0 | V/V0 ([1]; 50% additive): 0 | effect on the activity of rFIXa (in words) [1]: inactivate the enzyme

Compound: C[S+](C)[O-] [DMSO, dimethylsulfoxide]
V/V0 ([1]; 8% additive): 1.27 | V/V0 ([1]; 16% additive): 1.45 | V/V0 ([1]; 25% additive): 1.59 | V/V0 ([1]; 33% additive): 1.43 | V/V0 ([1]; 41% additive): 0.922 | V/V0 ([1]; 50% additive): 0.157 | effect on the activity of rFIXa (in words) [1]: does not inhibit rFIXa up to 30%

Compound: CO [Methanol]
V/V0 ([1]; 8% additive): 2.16 | V/V0 ([1]; 16% additive): 3.46 | V/V0 ([1]; 25% additive): 3.71 | V/V0 ([1]; 33% additive): 2.83 | V/V0 ([1]; 41% additive): 1.55 | V/V0 ([1]; 50% additive): 0.588 | stimulation of the activity of rFIXa ([1]; concentration range of 15-40%): 5-15 fold

Compound: CC(C)(C)O [t-Butanol]
V/V0 ([1]; 8% additive): 2.05 | V/V0 ([1]; 16% additive): 1.67 | V/V0 ([1]; 25% additive): 0.702 | V/V0 ([1]; 33% additive): 0.368 | V/V0 ([1]; 41% additive): 0.263 | V/V0 ([1]; 50% additive): 0.263

Continued, in another order:

V/V0 ([1]; 8% additive): 1.12 | V/V0 ([1]; 16% additive): 1.64 | V/V0 ([1]; 25% additive): 2.47 | V/V0 ([1]; 33% additive): 3.38 | V/V0 ([1]; 41% additive): 4.82 | V/V0 ([1]; 50% additive): 5.91
Compound: OCC(O)CO [Glycerol]
effect on the activity of rFIXa (in words) [1]: does not stimulate until higher concentrations (25-50%)

kkat /Km ([2]; 16% ethylene glycol): 0.326 L/mmol/s | kkat /Km ([2]; 25% ethylene glycol): 0.565 L/mmol/s | kkat /Km ([2]; 33% ethylene glycol): 0.552 L/mmol/s | kkat /Km ([2]; 41% ethylene glycol): 0.360 L/mmol/s | kkat /Km ([2]; 50% ethylene glycol): 0.148 L/mmol/s
Compound: CCCC[C@@H](NC(=O)OC)C(=O)NCC(=O)N[C@@H](CCCNC(=N)N)C(=O)Nc1ccc([N+](=O)[O-])cc1 [MOC--D--Nle--Gly--Arg--pNA, MOC-D-Nle-Gly-Arg-pNA] (Moc-[dNle]-Gly-Arg-pNA)

V/V0 ([1]; 8% additive): 2.17 | V/V0 ([1]; 16% additive): 2.48 | V/V0 ([1]; 25% additive): 1.18 | V/V0 ([1]; 33% additive): 0.346 | V/V0 ([1]; 41% additive): 0.164 | V/V0 ([1]; 50% additive): 0.164
Compound: CC(C)O [i-Propanol]

V/V0 ([1]; 8 g/100 ml additive): 1.16 | V/V0 ([1]; 16 g/100 ml additive): 1.35 | V/V0 ([1]; 25 g/100 ml additive): 1.49 | V/V0 ([1]; 33 g/100 ml additive): 1.56 | V/V0 ([1]; 41 g/100 ml additive): 1.64 | V/V0 ([1]; 50 g/100 ml additive): 1.77 | effect on the activity of rFIXa (in words) [1]: only has a slight effect
Compound: OC[C@@H](O)[C@@H](O)CO [m-Erythritol]

V/V0 ([1]; 8% additive): 3.43 | V/V0 ([1]; 16% additive): 2.26 | V/V0 ([1]; 25% additive): 0.339 | V/V0 ([1]; 33% additive): 0.186 | V/V0 ([1]; 41% additive): 0.056 | V/V0 ([1]; 50% additive): 0.056
Compound: CCCO [n-Propanol]

Inhibition of the activity of factor IXa (in %) ([3]; inhibitor 4.1 μmol/l, pH 7.4, 4.1% ethanol, 0.57 μmol/l rFIXa): 97.2% | Inhibition of the activity of factor IXa (in %) ([3]; inhibitor 4.1 μmol/l, pH 7.4, 33% ethylene glycol, 0.057 μmol/l rFIXa): 100% | Inhibition of the activity of factor IXa (in %) ([3]; inhibitor 4.1 μmol/l, pH 8.5, 4.1% ethanol, […] rFIXa): 100% | Inhibition of the activity of factor IXa (in %) ([3]; inhibitor 4.1 μmol/l, pH 8.5, 33% ethylene glycol, […] rFIXa): 100% | Inhibition of the activity of factor IXa (in %) ([3]; inhibitor 8.2 μmol/l, pH 7.4, 4.1% ethanol, 0.57 μmol/l rFIXa): 97.2% | Inhibition of the activity of factor IXa (in %) ([3]; inhibitor 8.2 μmol/l, pH 7.4, 33% ethylene glycol, 0.057 μmol/l rFIXa): 100% | Inhibition of the activity of factor IXa (in %) ([3]; inhibitor 8.2 μmol/l, pH 8.5, 4.1% ethanol, […] rFIXa): 96.2% | Inhibition of the activity of factor IXa (in %) ([3]; inhibitor 8.2 μmol/l, pH 8.5, 33% ethylene glycol, […] rFIXa): 97.9% | Inhibition of the activity of factor IXa (in %) ([3]; inhibitor 16.3 μmol/l, pH 7.4, 4.1% ethanol, 0.57 μmol/l rFIXa): 88.2% | Inhibition of the activity of factor IXa (in %) ([3]; inhibitor 16.3 μmol/l, pH 7.4, 33% ethylene glycol, 0.057 μmol/l rFIXa): 85.4% | Inhibition of the activity of factor IXa (in %) ([3]; inhibitor 16.3 μmol/l, pH 8.5, 4.1% ethanol, […] rFIXa): 86.2% | Inhibition of the activity of factor IXa (in %) ([3]; inhibitor 16.3 μmol/l, pH 8.5, 33% ethylene glycol, […] rFIXa): 88.4% | Inhibition of the activity of factor IXa (in %) ([3]; inhibitor 40.8 μmol/l, pH 7.4, 4.1% ethanol, 0.57 μmol/l rFIXa): 75.4% | Inhibition of the activity of factor IXa (in %) ([3]; inhibitor 40.8 μmol/l, pH 7.4, 33% ethylene glycol, 0.057 μmol/l rFIXa): 62.6% | Inhibition of the activity of factor IXa (in %) ([3]; inhibitor 40.8 μmol/l, pH 8.5, 4.1% ethanol, […] rFIXa): 77.5% | Inhibition of the activity of factor IXa (in %) ([3]; inhibitor 40.8 μmol/l, pH 8.5, 33% ethylene glycol, […] rFIXa): 78.4% | Inhibition of the activity of factor IXa (in %) ([3]; inhibitor 81.6 μmol/l, pH 7.4, 4.1% ethanol, 0.57 μmol/l rFIXa): 57.0% | Inhibition of the activity of factor IXa (in %) ([3]; inhibitor 81.6 μmol/l, pH 7.4, 33% ethylene glycol, 0.057 μmol/l rFIXa): 41.0% | Inhibition of the activity of factor IXa (in %) ([3]; inhibitor 81.6 μmol/l, pH 8.5, 4.1% ethanol, […] rFIXa): 63.8% | Inhibition of the activity of factor IXa (in %) ([3]; inhibitor 81.6 μmol/l, pH 8.5, 33% ethylene glycol, […] rFIXa): 66.0% | Inhibition of the activity of factor IXa (in %) ([3]; inhibitor 163 μmol/l, pH 7.4, 4.1% ethanol, 0.57 μmol/l rFIXa): 25.7% | Inhibition of the activity of factor IXa (in %) ([3]; inhibitor 163 μmol/l, pH 7.4, 33% ethylene glycol, 0.057 μmol/l rFIXa): 28.9% | Inhibition of the activity of factor IXa (in %) ([3]; inhibitor 163 μmol/l, pH 8.5, 4.1% ethanol, […] rFIXa): 48.8% | Inhibition of the activity of factor IXa (in %) ([3]; inhibitor 163 μmol/l, pH 8.5, 33% ethylene glycol, […] rFIXa): 45.4%
Compound: N=C(N)c1cccc(CC(NS(=O)(=O)c2ccc3ccccc3c2)C(=O)N2Cc3ccccc3CC2C(=O)O)c1 (centres unmarked) [βNAPS-(3-Am)Phe-TIC-OH, Nα-(2-naphthylsulfonyl)-3-amidino-(D,L)-phenylalanine-1,2,3,4-tetrahydroisoquinoline-3-carboxylic acid]
